US7150974B1, “Parathyroid hormone receptor binding method” (The General Hospital Corporation, priority 1991, dated 2006)

How the values were obtained:
[1] = biological target: T1, human kidney PTH/PTHrP receptor (Homo sapiens, UniProt Q03431, L389Q); assay: Radioreceptor assay, COS-7 cells transiently expressing human kidney PTH/PTHrP receptor (HKrk); format: binding
T1 construct: The full-length human kidney PTH/PTHrP receptor cDNA, HKrk, was constructed using the BamHI/PvuII fragment of PCR clone #2 and HK-2; expressed in transfected cells; host or cells: COS-7 cells, transient (DEAE/Dextran), pcDNAI
T1 sequence (Q03431 27-593 L389Q): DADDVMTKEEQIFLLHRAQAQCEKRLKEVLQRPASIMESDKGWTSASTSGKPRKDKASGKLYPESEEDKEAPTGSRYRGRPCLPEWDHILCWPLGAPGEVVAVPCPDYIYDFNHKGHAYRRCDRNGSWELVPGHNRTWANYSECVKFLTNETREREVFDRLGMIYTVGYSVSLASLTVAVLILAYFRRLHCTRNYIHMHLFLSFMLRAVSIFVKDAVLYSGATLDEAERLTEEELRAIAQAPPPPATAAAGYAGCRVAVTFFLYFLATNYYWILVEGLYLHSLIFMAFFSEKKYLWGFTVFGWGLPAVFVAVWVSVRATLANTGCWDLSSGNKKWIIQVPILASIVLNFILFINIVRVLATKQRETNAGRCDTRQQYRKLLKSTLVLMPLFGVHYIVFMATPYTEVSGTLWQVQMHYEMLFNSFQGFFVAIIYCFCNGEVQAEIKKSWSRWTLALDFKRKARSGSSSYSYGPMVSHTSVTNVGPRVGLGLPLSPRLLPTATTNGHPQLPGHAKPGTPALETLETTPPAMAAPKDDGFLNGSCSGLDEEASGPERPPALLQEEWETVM
Method: In brief, the labeled peptide was dissolved in 0.1% trifluoracetic acid (TFA), applied to a C18 Sep-pak cartridge (Waters Associates, Inc., Milford, Mass.) and eluted with a solution of 60% acetonitrile in 0.1% TFA. After lyophilization, the radioligand then was applied to C18-μBondapak column (3.9 mm×30 cm. Waters Associates) and eluted over 30 min with a linear gradient of 30-50% acetonitrile-0.1% TFA at a flow rate of 2 ml/min.
COS-7 cells were grown in 15 cm plates in DMEM, 10% heat-inactivated […], 10 mg/L gentamycin until 80-90% confluent. Twenty-four hours after transfection by the DEAE/Dextran method (Sambrook et al., supra), with 1-2 μg of plasmid DNA, the cells were trypsinized and replated in multiwell plastic dishes (16 or 35 mm diameter, Costar, Cambridge, Mass.) at a cell concentration of 5×10^4 cells/cm^2). […] After continuing culture for another 48 h, radiorecepter assays were performed. The culture medium was replaced with buffer containing 50 mM Tris-HCL (pH 7.7), 100 mM NaCl, 2 mM CaCl2, 5 mM KCL, 0.5% heat-inactivated fetal bovine serum (GIBCO), and 5% heat-inactivated horse serum (KC Biological Inc., Lenexa, Kans.) immediately before studies were initiated.
(§1) Incubations were terminated by aspirating the buffer, and repeatedly (×3) washing the culture dishes, containing the adherent cells with chilled 0.9% NaCl solution, over a 15 sec period. Cell-bound radioactivity was recovered by the sequential addition (×3) of 1 N NaOH (200 μl) to each well. After 30 min at room temperature, the NaOH was transferred to a glass tube. A second and third extraction with 1 N NaOH (200 μl) were combined with the first, and the total radioactivity was counted in a γ-spectrometer (Packard Instruments, Downers Grove, Ill.).

[2] = biological target: T2, opossum kidney PTH/PTHrp receptor clone, OK-O (Didelphis virginiana, UniProt P25107, I132F/S86P); assay: Radioreceptor assay, COS cells expressing OK-O; format: binding; details: FIG. 11
T2 construct: expressed in transfected cells; host or cells: COS cells, transient, plasmid OK-O (pcDNA I)
T2 sequence (P25107 27-585 S86P/I132F): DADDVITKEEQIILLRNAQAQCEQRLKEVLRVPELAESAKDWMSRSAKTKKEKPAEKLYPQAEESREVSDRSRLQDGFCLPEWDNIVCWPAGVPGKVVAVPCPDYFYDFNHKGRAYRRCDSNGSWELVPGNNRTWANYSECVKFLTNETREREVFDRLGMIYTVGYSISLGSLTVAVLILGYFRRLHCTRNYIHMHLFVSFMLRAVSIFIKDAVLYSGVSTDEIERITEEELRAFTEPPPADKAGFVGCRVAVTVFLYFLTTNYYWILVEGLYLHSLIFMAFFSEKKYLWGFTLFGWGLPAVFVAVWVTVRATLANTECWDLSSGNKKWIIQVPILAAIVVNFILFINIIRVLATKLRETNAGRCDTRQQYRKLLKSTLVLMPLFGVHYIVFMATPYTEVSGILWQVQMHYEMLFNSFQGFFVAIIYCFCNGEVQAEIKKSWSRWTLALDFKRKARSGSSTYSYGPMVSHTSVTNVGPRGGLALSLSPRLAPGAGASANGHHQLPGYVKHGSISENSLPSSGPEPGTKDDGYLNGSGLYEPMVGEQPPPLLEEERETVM
Method: [Nle^8,Nle^18,Tyr^34]bPTH-(1-34)amide (NlePTH), and [Tyr^36]PTHrP(1-36)amide(PTHrP) were iodinated with Na^125I (carrier free, New England Nuclear, Boston, Mass.) as previously reported (Segre et al., J. Biol. Chem. 254: 6980, 1979), and purified by reverse-phase HPLC. In brief, the labeled peptide was dissolved in 0.1% trifluoracetic acid (TFA), applied to a C18 Sep-pak cartridge (Waters Associates, Inc., Milford, Mass.) and eluted with a solution of 60% acetonitrile in 0.1% TFA. After lyophilization, the radioligand then was applied to C18-μBondapak column (3.9 mm×30 cm. Waters Associates) and eluted over 30 min with a linear gradient of 30-50% acetonitrile-0.1% TFA at a flow rate of 2 ml/min. The radioligand eluted in two peaks; the first peak, which eluted at approximately 38% acetonitrile, was used in these studies because it gave higher total and specific bindings. The specific activity was 500±75 mCi/mg, which corresponds to an average iodine-peptide ratio of 1.
COS-7 cells were grown in 15 cm plates in DMEM, 10% heat-inactivated […], 10 mg/L gentamycin until 80-90% confluent. Twenty-four hours after transfection by the DEAE/Dextran method (Sambrook et al., supra), with 1-2 μg of plasmid DNA, the cells were trypsinized and replated in multiwell plastic dishes (16 or 35 mm diameter, Costar, Cambridge, Mass.) at a cell concentration of 5×10^4 cells/cm^2). Cell number increased only slightly after transfection. After continuing culture for another 48 h, radiorecepter assays were performed. […]
as §1, with “After 30 min at room temperature, the NaOH was transferred to a glass tube.” left out, “Ill.). […]” for “Ill.).”

[Nle^8,18, Tyr^34]bPTH(1-34)amide
fold higher apparent Kd, human versus rat bone PTH/PTHrP receptor ([1]; human versus rat receptor): 2 fold
specific binding of radiolabelled ligand ([1]; radiolabelled ligand ~200,000 cpm, COS-7 cells transfected with cloned human PTH/PTHrP receptor): 10.1±3.7%
inhibition of 125I-PTHrP binding by competitor [2]: inhibited
